Test results: US7041280B2, “Aryl boronate functionalized polymers for treating obesity” (Genzyme Corporation, priority 2001, dated 2006)

System: fat absorption through lipase inhibition in rats
Details: rats gavaged with 4 mL olive oil emulsion with drug after 18 hour fast, intestinal contents after 8 hours; for In Vivo Infusion Assay in Rats ED50 (mg/g fat) or estimate: dose at half the maximum recoverable triglyceride; for In Vivo Infusion Assay in Rats Ed50 (mg/kg body wt) or estimate: dose per body weight
Method: Compounds were evaluated in rats to determine their in vivo potency in inhibiting fat absorption through lipase inhibition. Rats were acclimated to the facility for approximately 1 week in individual wire-bottom cages and provided a standard chow diet and water ad libitum. […] Test compounds were dissolved in DMSO or deionized water. Drug solutions were mixed thoroughly in the olive oil emulsion just prior to administration. After 8 hours, rats were euthanized with CO2 and the intestines were removed. The intestinal contents were harvested from the lower half of the small intestine and the cecum. Contents were placed in separate, pre-weighed, 15 milliliter conical screw cap tubes in a (dry ice/alcohol bath) to maintain freezing temperature until the final freeze of all samples. Samples were stored at −80° C. until lyophilization.
Samples were freeze-dried and ground, then analyzed for triglyceride and fatty acid.
A 20 milligram aliquot of each sample was weighed and transferred to a 15 milliliters conical tube. 3 milliliters of hexane were added to each tube, which were capped and vortexed for 15 seconds at high speed. 3 milliliters of 1 N HCl were added and the samples were then subjected to wrist-action shaking for 1 hour. Samples were then centrifuged for 5 minutes at 3500 rpm and the hexane layer was collected. An aliquot of the hexane layer was diluted in hexane and analyzed for triglyceride, diglyceride and fatty acid by HPLC as described above.
The data was expressed as follows. The milligrams of intestinal contents that was extracted and the total number of milligrams collected were recorded. The milligrams/milliliters values obtained from the HPLC analysis were entered. The individual lipid components were calculated and expressed as total milligrams recovered. Dose units are expressed as the milligrams of drug per gram of oil administered to each rat. The ED50's were determined by extrapolating the dose value at half the maximum obtainable triglyceride recoverable in the assay.

For “poly(N-diethanolaminopropyl)acrylamide conjugated with 4-(14′-trimethylammonium-3′-thia-1′-ketotetradecyl)-3-fluorophenylboronic acid bromide [Polymer 2]”, the “In Vivo Infusion Assay in Rats ED50 (mg/g fat) or estimate” value was 4.5 mg/g fat and the “In Vivo Infusion Assay in Rats Ed50 (mg/kg body wt) or estimate” value was 33.8 mg/kg body wt.

With “Poly(N-diethanolaminopropyl)acrylamide conjugated with 4-(14′-hydroxy-3′-thia-1′-ketotetradecyl)phenylboronic acid [Polymer 6]” the “In Vivo Infusion Assay in Rats ED50 (mg/g fat) or estimate” value was 36 mg/g fat and the “In Vivo Infusion Assay in Rats Ed50 (mg/kg body wt) or estimate” value was 270 mg/kg body wt.

For “poly(N-diethanolaminopropyl)acrylamide conjugated with 4-(14′-trimethylammonium-3′-thia-1′-ketotetradecyl)-3-fluorophenylboronic acid bromide [Polymer 1]”, the “In Vivo Infusion Assay in Rats ED50 (mg/g fat) or estimate” value was 3 mg/g fat and the “In Vivo Infusion Assay in Rats Ed50 (mg/kg body wt) or estimate” value was 22.5 mg/kg body wt.

With “poly(N-diethanolaminopropyl)acrylamide conjugated with 4-(14′-trimethylammonium-3′-thia-1′-ketotetradecyl)phenylboronic acid bromide [Polymer 3]” the “In Vivo Infusion Assay in Rats ED50 (mg/g fat) or estimate” value was 20 mg/g fat and the “In Vivo Infusion Assay in Rats Ed50 (mg/kg body wt) or estimate” value was 150 mg/kg body wt.

In the case of “Poly(N-diethanolaminopropyl)acrylamide conjugated with 4-(14′-hydroxy-3′-thia-1′-ketotetradecyl)-3-fluorophenylboronic acid [Polymer 5]”, the “In Vivo Infusion Assay in Rats ED50 (mg/g fat) or estimate” value is reported as 50 mg/g fat and the “In Vivo Infusion Assay in Rats Ed50 (mg/kg body wt) or estimate” value is reported as 375 mg/kg body wt.
